These results are taken from PMC12649290 (Journal of Clinical Pharmacology, 2025).

Data set [1] is described as follows: Population pharmacokinetic (popPK) model developed on OSIBOOST trial plasma concentrations (NONMEM). It counts as in vivo, human. The settings on record: for CL/F, Population Estimate (RSE%) / V/F, Population Estimate (RSE%): allometrically scaled on bodyweight of 70 kg; for CL/F, Population Estimate (RSE%): exponent 0.75; for V/F, Population Estimate (RSE%): exponent 1; for CL/F, Bootstrap Median / V/F, Bootstrap Median: non-parametric bootstrap n = 1000. How it is done:
The data used in this study were obtained from the OSIBOOST clinical trial (NCT03858491).[15] The trial was approved by an independent medical ethics committee (METC19‐013) and was conducted in accordance with the 1964 Helsinki declaration (and its amendments). All patients provided written informed consent. Patients were included from one academic medical center and a specialized tertiary referral center in the Netherlands (the Maastricht University Medical Centre and the Antoni van Leeuwenhoek hospital). […] After 21 days of concomitant treatment with cobicistat (to reach steady state), PK samples (pre‐dose, 0.5‐1.5 h, 2.5‐3.5 h, 7‐8 h) of the concomitant therapy were collected.
PK data were analyzed with NONMEM version 7.4.4, Perl‐speaks‐NONMEM (PsN) version 5.4.0, R version 4.4.2, and Rstudio version 2024.09.0. The packages xpose, tidyvpc, mrgsolve, and ggplot2 in R were used for plotting and simulations.
A base popPK model was developed with the data from osimertinib monotherapy, using the first‐order conditional estimation method with interaction (FOCE‐I). […] Parameter changes were tested with stepwise inclusion and backward elimination. A decrease of more than −3.84 ΔOFV (P < .05) was considered a significant improvement when a single parameter was added to nested models. For backward elimination, a stricter criterion of 6.63 ΔOFV (P < .01) was used when removing a parameter from the popPK model.[25] One‐compartment and two‐compartment models were tested to best describe the data. Exponential between subject variability (BSV) on the popPK parameters was explored in a step‐wise approach. Residual error was tested as an additional, proportional, and a combined error model.
Developed popPK models were evaluated based on successful minimization, change in objective function value (ΔOFV), numerical diagnostics, standard goodness of fit (GOF) plots, and conditional weighted residuals (CWRES) plots. The performance of the developed popPK models was assessed with prediction‐corrected visual predictive check (pcVPC) and normalized prediction distribution error (NPDE) plots.[27] For the final popPK model, the median parameter estimate and 95% confidence interval (CI) were obtained non‐parametric bootstrap procedure (n = 1000) and can be considered as an internal validation.[28], [29] Relative standard errors (RSE%) of estimated parameters were acceptable when <30%.[30] A condition number was considered acceptable if […].[30] Both η‐shrinkage and ε‐shrinkage were considered appropriate if <30%.[31]

The conditions of data set [2]: cited from earlier work.
For data set [3] the following is noted: cited from earlier work. This is another data set of the same source.

Regarding `C=CC(=O)Nc1cc(Nc2nccc(-c3cn(C)c4ccccc34)n2)c(OC)cc1N(C)CCN(C)C` [osimertinib], in data set [1], the “CL/F, Population Estimate (RSE%)” value is given as 19.0 (8.5%) L/h; the “V/F, Population Estimate (RSE%)” value is listed as 990 (29%) L; the “CL/F, Bootstrap Median” value stood at 19.0 L/h; the “V/F, Bootstrap Median” value was determined as 966 L. The “Coefficient of variation (CV%) of the BSV on CL/F” value in data set [1] (in vivo) was 21.5%.
Turning to `C=CC(=O)Nc1cc(Nc2nccc(-c3c[nH]c4ccccc34)n2)c(OC)cc1N(C)CCN(C)C` [AZ5104], in data set [1], the “CL/F, Population Estimate (RSE%)” value is reported as 47.3 (7.8%) L/h; the “V/F, Population Estimate (RSE%)” value is on record as 184 (48.5%) L; the “CL/F, Bootstrap Median” value is reported as 46.3 L/h; the “V/F, Bootstrap Median” value is reported as 181 L.
Consider `CC(C)c1nc(CN(C)C(=O)N[C@@H](CCN2CCOCC2)C(=O)N[C@H](CC[C@H](Cc2ccccc2)NC(=O)OCc2cncs2)Cc2ccccc2)cs1` [cobicistat], for which the “Increase of osimertinib exposure (mean AUC0‐24h) by cobicistat” value in data set [2] (11 patients with Cmin,SS ≤ 195 µg/L, noncompartmental analysis) is given as 50%. Besides, the “Adverse events of cobicistat boosted osimertinib” value in data set [2] (11 patients with low osimertinib exposure) is on record as “without any grade ≥3 adverse events (AEs) or new safety signals”.
With `CCC(C)n1ncn(-c2ccc(N3CCN(c4ccc(OCC5COC(Cn6cncn6)(c6ccc(Cl)cc6Cl)O5)cc4)CC3)cc2)c1=O` (stereo not drawn) [itraconazole], the “Increase in osimertinib exposure when combined with itraconazole” value in data set [3] is given as 24%.
